This assay has as its system HIV-1LAI. The assay is described as follows: Antiviral activity in MT-2 human T-lymphoid cells exposed to HIV-1LAI. The class given is cell-based.

Take `COc1ccc(S(=O)(=O)N(CC(C)C)C[C@@H](O)[C@H](Cc2ccccc2)NC(=O)O[C@H]2C[C@H]3CO[C@H]4OCC[C@@H]2[C@@H]34)cc1` [Inhibitor 4c, (2aR,2a^1R,4S,4aR,7aR)-Octahydro-2H-1,7-dioxacyclopenta[cd]inden-4-yl ((2S,3R)-3-hydroxy-4-((N-isobutyl-4-methoxyphenyl)sulfonamido)-1-phenylbutan-2-yl)carbamate]: the “improvement in antiviral activity compared to inhibitor 4b” value (MT-2 cells exposed to HIV-1LAI, versus 4b) was determined as 4 fold.

Take `CC(C)(C)NC(=O)[C@@H]1C[C@@H]2CCCC[C@@H]2CN1C[C@@H](O)[C@H](Cc1ccccc1)NC(=O)[C@H](CC(N)=O)NC(=O)c1ccc2ccccc2n1` [SQV, saquinavir]: the IC50 (commonly the concentration needed to halve the response being measured) (Human immunodeficiency virus 1, MT2, in Homo sapiens, read-out: antiviral IC50) came to 0.021 µM.

For the origin of these results see PMC6044451 (Journal of medicinal chemistry, 2018).
